Experiments:
N370S GCase = target: T1, N370S GCase (Homo sapiens, UniProt P04062, N409S); test: Pulse-chase experiments on N370S GCase; conditions: data not shown
T1 sequence (P04062 40-536 N409S): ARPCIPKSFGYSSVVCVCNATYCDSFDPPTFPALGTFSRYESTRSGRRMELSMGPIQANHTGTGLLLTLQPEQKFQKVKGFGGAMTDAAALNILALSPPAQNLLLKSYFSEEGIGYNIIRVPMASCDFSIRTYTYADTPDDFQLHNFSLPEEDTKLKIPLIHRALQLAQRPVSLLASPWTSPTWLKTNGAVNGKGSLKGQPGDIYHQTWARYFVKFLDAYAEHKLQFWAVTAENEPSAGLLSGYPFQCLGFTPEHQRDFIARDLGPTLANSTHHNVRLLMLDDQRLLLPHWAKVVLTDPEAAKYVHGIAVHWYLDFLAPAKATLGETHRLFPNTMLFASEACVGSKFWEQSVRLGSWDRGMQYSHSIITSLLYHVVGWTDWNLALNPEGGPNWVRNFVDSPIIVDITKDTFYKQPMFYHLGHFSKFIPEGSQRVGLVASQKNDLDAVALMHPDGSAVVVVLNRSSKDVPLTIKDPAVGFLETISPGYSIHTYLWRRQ

chitotriosidase = test: Plasma chitotriosidase activity in L444P transgenic mice; type: in vivo
Experimental: Isofagomine treatment. Mice were administered isofagomine tartrate in their drinking water, ad libitum, at a concentration of 20 mg/kg.
Surrogate marker measurement. At the end of 4, 12, or 24 weeks, mice were sacrificed and evaluated for (i) enhancement of GCase enzyme activity in liver, spleen, lung and brain; (ii) chitotriosidase activity; (ii) body, spleen, and liver weight; and (iv) serum IgG, cholesterol, and liver enzyme levels. In addition, chaperone concentration in plasma and in the foregoing tissues will also be determined.
c. Chitotriosidase activity: Plasma is collected for the assay in 5 μl aliquots (in duplicate), and the remaining is stored at −80° C. 5 μl of plasma/EDTA is mixed with 100 μl 22 μM 4-MU-b-D-N,N′N″-triacetylchitotriose in citrate phosphate buffer (0.1M citrate and 0.2M phosphate buffer, pH5.2; made by mixing 185 ml 0.1 M citric acid and 200 ml 0.2 M sodium phosphate) in a 96 well black plate. 5 μl of EDTA/PBS (no plasma) is used as a negative control. A standard curve with standard serum is prepared by serial dilution in one row of the plate. The plate is then incubated for 15 minutes at 37° C. (floating in a hot water bath), and the reaction stopped by adding 150 μl 1M glycine, pH 10.8. The plate is read at F355/F460 in a Victor^2 1420 multilabel counter (Wallac).

OC[C@H]1CNC[C@@H](O)[C@@H]1O [isofagomine, (3R,4R,5R)-5-(hydroxymethyl)-3,4-piperidinediol]
N370S GCase in the ER (N370S GCase): increases N370S GCase in the ER | chitotriosidase levels (chitotriosidase; after 4 weeks of treatment, versus untreated): no difference | chitotriosidase levels (chitotriosidase; after 12 weeks, untreated >20,000, wild-type about 7500, p=0.1): about 17,000 μg of protein

From patent US8399525B2, “Treatment of gaucher disease with specific pharmacological chaperones and monitoring treatment using surrogate markers” (Amicus Therapeutics, Inc., priority 2007, dated 2013)
